Measurements published in patent publication US4382925A.
Converted amounts (≈) assume the structure as drawn. “Also recorded” adds a separate entry of the source. Where two headings read alike, the source gives them in different places.

Tests used:
[1] = system: Herpes simplex-1 strain KOS; assay: Inhibition of cytopathic effect of herpes simplex-1 virus strain KOS in PRK and HSF cell cultures (Test 1); type: cell-based; details: average of three experiments
[2] = system: (Methyl-^3 H)TdR incorporation into cell DNA, PRK cell cultures; details: separate experiments reported by De Clercq et al., PNAS 76, 2947-2951 (1979); cited from earlier work
[3] = system: (2-^14 C)UdR incorporation into cell DNA, PRK cell cultures; details: separate experiments reported by De Clercq et al., PNAS 76, 2947-2951 (1979); cited from earlier work
cell culture [4] = details: prior art literature; cited from earlier work
[5] = system: herpes simplex-1 (strain KOS) virus; details: separate experiments, De Clercq et al., PNAS 1979; cited from earlier work
vaccinia virus = assay: microbe, parasite or virus in culture; type: cell-based; details: Orthopoxvirus vaccinia
[6] = system: Herpes simplex-1 strain McIntyre; assay: Inhibition of cytopathic effect of herpes simplex-1 virus strain McIntyre in PRK cell cultures (Test 1); type: cell-based; details: PRK cells, average of three experiments, read-out: ID50, Herpes simplex-1 strain McIntyre (PRK)
[7] = system: herpes simplex-1 (strain KOS) virus; details: dose 10 μl/ml [sic]
[8] = system: Herpes simplex-1 strain F; assay: Inhibition of cytopathic effect of herpes simplex-1 virus strain F in PRK cell cultures (Test 1); type: cell-based; details: PRK cells, average of three experiments, read-out: ID50, Herpes simplex-1 strain F (PRK)
[9] = system: herpes simplex-1 (strain KOS) virus; assay: Antiviral index in PRK cell cultures (Test 4); type: cell-based, herpes simplex-1 virus; details: ratio of ID50 for (2-^14 C)UdR incorporation to ID50 for herpes simplex-1 (strain KOS), PRK cells
Method: The antiviral index was determined as the ratio of ID50 for (2-^14 C)UdR incorporation into cell DNA to ID50 for herpes simplex-1 (strain KOS) virus replication (compare Tables 1 and 3).

[10] = Antimetabolic activity in PRK cell cultures: (2-^14 C)UdR incorporation into cell DNA (Test 3); type: cell-based; details: rabbit, PRK cells, read-out: ID50, (2-^14 C)UdR incorporation into cell DNA
Method: (§1) To this end, the incorporation of certain radiolabelled DNA precursors into DNA of the cells, and the effect of 5-(2-halogenovinyl)-2'-deoxycytidines and related compounds thereon, was tested. The technique has been described by De Clercq et al in Biochemical Pharmacology, 26, 794-797 (1977) and by De Clercq et al in Molecular Pharmacology, 14, 422-430, (1978).
(§2) The DNA precursors as used were (methyl-^3 H), (2'-deoxythymidine ) (TdR), and (2-^14 C) (2'-deoxyuridine) (UdR).
(§3) The cells were exposed to 0.12 μCi:0.01 nmol (methyl-^3 H)TdR (per 10^5 cells) or 14 μCi/250 nmol (2-^14 C) UdR (per 10^5 cells) for 16 hours in the presence of varying concentrations of the compounds (ranging from 1 to 200 μg/ml). Incorporation of the radiolabelled precursor was then measured as described and the ID50 was determined. ID50 corresponds to the inhibitory dose-50, that is the concentration of compound required to inhibit incorporation of either (methyl-^3 H)TdR or (2-^14 C)UdR by 50%.

[11] = Antimetabolic activity in PRK cell cultures: (methyl-^3 H)TdR incorporation into cell DNA (Test 3); type: cell-based; details: rabbit, PRK cells, read-out: ID50, (Methyl-^3 H)TdR incorporation into cell DNA
Method: as §1, §2, §3

herpes simplex virus [12] = details: De Clercq et al., PNAS 76, 2947-2951 (1979); cited from earlier work
herpes simplex virus [13] = assay: Antiviral activity against herpes simplex virus in cell culture, overall statements; type: cell-based; details: in words
cell culture [14] = assay: Toxicity in cell culture, overall statements; type: cell-based; details: in words
Method: as §3

[15] = HSF cells, read-out: ID50, Herpes simplex-1 strain KOS (HSF)
[16] = PRK cells, read-out: ID50, Herpes simplex-1 strain KOS (PRK)
[17] = HSF, read-out: ID50, Vaccinia (HSF)
[18] = PRK, read-out: ID50, Vaccinia (PRK)

Row | Structure (SMILES) | IC50 [1, 15] | IC50 [1, 16] | ID50, (Methyl-^3 H)TdR incorporation into cell DNA (data in parentheses) [2] | ID50, (2-^14 C)UdR incorporation into cell DNA (data in parentheses) [3] | toxicity in cell culture, reported (cell culture [4]) | Antiviral index (numbers in parentheses) [5] | IC50 (vaccinia virus; [17]) | IC50 (vaccinia virus; [18]) | IC50 [6] | Reduction in virus yield as compared to control (untreated virus-infected) cell cultures ([7]; 1 day after infection) | Reduction in virus yield as compared to control (untreated virus-infected) cell cultures ([7]; 2 days after infection) | Reduction in virus yield as compared to control (untreated virus-infected) cell cultures ([7]; 3 days after infection) | IC50 [8] | Antiviral index [9] | IC50 at 16 h [10] | IC50 at 16 h [11] | antiviral activity against herpes simplex virus, reported (herpes simplex virus [12]) | specific antiviral activity against herpes simplex virus (herpes simplex virus [13]) | toxicity in cell culture (cell culture [14])
1 | O=c1[nH]c(=O)n([C@H]2C[C@H](O)[C@@H](CO)O2)cc1I [5-iodo-2'-deoxyuridine] | 0.2 µg/mL (≈ 0.565 µM) | 0.1 µg/mL (≈ 0.282 µM) | 2.5 µg/mL (≈ 7.06 µM) | 1.2 µg/mL (≈ 3.39 µM) | cannot be neglected | 12 | 0.2 µg/mL (≈ 0.565 µM) | 0.02 µg/mL (≈ 0.0565 µM) | 0.15 µg/mL (≈ 0.424 µM) | 4.0 log10 PFU/ml | 2.6 log10 PFU/ml | 1.9 log10 PFU/ml | 0.2 µg/mL (≈ 0.565 µM) | – | – | – | – | – | –
2 | O=c1[nH]c(=O)n([C@H]2C[C@H](O)[C@@H](CO)O2)cc1/C=C/I [E-5-(2-iodovinyl)-2'-deoxyuridine] | 0.02 µg/mL (≈ 0.0526 µM) | 0.01 µg/mL (≈ 0.0263 µM) | 70 µg/mL (≈ 184 µM) | 70 µg/mL (≈ 184 µM) | low toxicity in cell culture | 7000 | 1 µg/mL (≈ 2.63 µM) | 10 µg/mL (≈ 26.3 µM) | 0.01 µg/mL (≈ 0.0263 µM) | – | – | – | 0.01 µg/mL (≈ 0.0263 µM) | 15000 | 150 µg/mL (≈ 395 µM) | 80 µg/mL (≈ 210 µM) | specific antiviral activity against herpes simplex virus | – | –
3 | O=c1[nH]c(=O)n([C@H]2C[C@H](O)[C@@H](CO)O2)cc1/C=C/Br [E-5-(2-bromovinyl)-2'-deoxyuridine] | 0.01 µg/mL (≈ 0.03 µM) | 0.007 µg/mL (≈ 0.021 µM) | 70 µg/mL (≈ 210 µM) | 70 µg/mL (≈ 210 µM) | low toxicity in cell culture | 10000 | 0.7 µg/mL (≈ 2.1 µM) | 7 µg/mL (≈ 21 µM) | 0.01 µg/mL (≈ 0.03 µM) | – | – | – | 0.01 µg/mL (≈ 0.03 µM) | 14300 | 100 µg/mL (≈ 300 µM) | 100 µg/mL (≈ 300 µM) | specific antiviral activity against herpes simplex virus | – | –
4 | Nc1nc(=O)n([C@H]2C[C@H](O)[C@@H](CO)O2)cc1/C=C/Br [E-5-(2-bromovinyl)-2'-deoxycytidine] | 0.07 µg/mL (≈ 0.211 µM) | 0.07 µg/mL (≈ 0.211 µM) | – | – | – | – | 2 µg/mL (≈ 6.02 µM) | 10 µg/mL (≈ 30.1 µM) | 0.07 µg/mL (≈ 0.211 µM) | 3.8 log10 PFU/ml | 2.9 log10 PFU/ml | 2.2 log10 PFU/ml | 0.1 µg/mL (≈ 0.301 µM) | – | > 200 µg/mL | > 200 µg/mL | – | excellent and highly specific antiviral activity against herpes simplex virus; also recorded: very specific towards herpes simplex virus | apparently nil; also recorded: apparent lack of toxicity in cell culture
5 | Nc1nc(=O)n([C@H]2C[C@H](O)[C@@H](CO)O2)cc1/C=C/I [E-5-(2-iodovinyl)-2'-deoxycytidine] | 0.07 µg/mL (≈ 0.185 µM) | 0.1 µg/mL (≈ 0.264 µM) | – | – | – | – | 7 µg/mL (≈ 18.5 µM) | 10 µg/mL (≈ 26.4 µM) | 0.07 µg/mL (≈ 0.185 µM) | 4.3 log10 PFU/ml | 2.8 log10 PFU/ml | 2.0 log10 PFU/ml | 0.2 µg/mL (≈ 0.527 µM) | – | > 200 µg/mL | > 200 µg/mL | – | excellent and highly specific antiviral activity against herpes simplex virus; also recorded: very specific towards herpes simplex virus | apparently nil; also recorded: apparent lack of toxicity in cell culture
